Source: ChEMBL document CHEMBL1201862, “PubChem BioAssay data set” (2004)
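Grown in 96-well plates, cells were treated for 48 hours with each compound at five concentrations. Insufficient inhibition: endpoint recorded as highest concentration tested. At the GI50, growth is halved.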 The source made the active and inactive calls. No stated cut-off is given here; in the data, active = GI50 up to about 1.1 µM and inactive = higher.

How the values were obtained:
Assay in all cases: DTP human tumour cell line panel, 48 h
OVCAR-4 = system: OVCAR-4
UACC-62 = system: UACC-62
SK-MEL-28 = system: SK-MEL-28
KM12 = system: KM12
U-251 = system: U-251
SF-295 = system: SF-295
SW-620 = system: SW-620
HCC 2998 = system: HCC 2998
SK-OV-3 = system: SK-OV-3
HCT-15 = system: HCT-15
HOP-62 = system: HOP-62
A498 = system: A498
Malme-3M = system: Malme-3M
EKVX = system: EKVX
HCT-116 = system: HCT-116
NCI-H23 = system: NCI-H23
NCI-H522 = system: NCI-H522
MOLT-4 = system: MOLT-4
LOX IMVI = system: LOX IMVI
CAKI-1 = system: CAKI-1

Row | SMILES | GI50 (OVCAR-4) | GI50 (UACC-62) | GI50 (SK-MEL-28) | GI50 (KM12) | GI50 (U-251) | GI50 (SF-295) | GI50 (SW-620) | GI50 (HCC 2998) | GI50 (SK-OV-3) | GI50 (HCT-15) [µM] | GI50 (HOP-62) | GI50 (A498) | GI50 (Malme-3M) | GI50 (EKVX) | GI50 (HCT-116) | GI50 (NCI-H23) | GI50 (NCI-H522) | GI50 (MOLT-4) | GI50 (LOX IMVI) | GI50 (CAKI-1)
1 | ClCc1nnc2n1-c1ccc(Cl)cc1SC2 | 3.89 µM (inactive) | 2.69 µM (inactive) | 4.74 µM (inactive) | 4.35 µM (inactive) | 6.59 µM (inactive) | 2.21 µM (inactive) | 4.55 µM (inactive) | 4.06 µM (inactive) | 3.56 µM (inactive) | 4.56 | 6.25 µM (inactive) | 4.03 µM (inactive) | 3.88 µM (inactive) | 13.3 µM (inactive) | 3.1 µM (inactive) | 2.35 µM (inactive) | 1.63 µM (inactive) | 1.45 µM (inactive) | 1.49 µM (inactive) | 
2 | COC(=O)C1=C(O)C(C(=O)OC)[C@]2(O)[C@@H](C(=O)OC)[C@H]1C[C@@H](c1ccccc1)[C@@H]2C(=O)OC (stereo partly drawn) |  | 11.9 µM (inactive) | 20.9 µM (inactive) | 11.7 µM (inactive) | 16.1 µM (inactive) |  |  | 14.2 µM (inactive) | 17.4 µM (inactive) | 13.1 | 20 µM (inactive) | 17.2 µM (inactive) | 18.2 µM (inactive) | 17.5 µM (inactive) | 6.98 µM (inactive) | 15.2 µM (inactive) | 6.71 µM (inactive) | 11.6 µM (inactive) | 15.4 µM (inactive) | 
3 | COc1cc(C)cc2c1C(=O)C(NC(C)=O)=CC2=O | 24.6 µM (inactive) | 58.7 µM (inactive) | > 100 µM (inactive) | > 100 µM (inactive) | > 100 µM (inactive) | > 100 µM (inactive) | > 100 µM (inactive) | > 100 µM (inactive) | > 100 µM (inactive) | > 100 | > 100 µM (inactive) | > 100 µM (inactive) | > 100 µM (inactive) | > 100 µM (inactive) | > 100 µM (inactive) | > 100 µM (inactive) | > 100 µM (inactive) | 28.2 µM (inactive) |  | > 100 µM (inactive)
4 | COC(=O)C1CCC(=O)N1/C(C)=N/NC(=O)Nc1ccc(Cl)c(Cl)c1 (stereo not drawn) | > 100 µM (inactive) | 10.5 µM (inactive) | > 100 µM (inactive) | 98.4 µM (inactive) | > 100 µM (inactive) | > 100 µM (inactive) | > 100 µM (inactive) | > 100 µM (inactive) | 43.4 µM (inactive) | 14.4 | > 100 µM (inactive) | > 100 µM (inactive) |  | > 100 µM (inactive) | > 100 µM (inactive) | > 100 µM (inactive) |  | 99.1 µM (inactive) | 31.5 µM (inactive) | 74.6 µM (inactive)
5 | CCOC(=O)C[C@@H]1C2(C=C[C@@]13CO3)OCC(C)(C)CO2 | 8.2 µM (inactive) | > 100 µM (inactive) | > 100 µM (inactive) |  | > 100 µM (inactive) | > 100 µM (inactive) | > 100 µM (inactive) | > 100 µM (inactive) | > 100 µM (inactive) | > 100 | > 100 µM (inactive) | > 100 µM (inactive) | > 100 µM (inactive) | > 100 µM (inactive) | > 100 µM (inactive) | > 100 µM (inactive) |  | > 100 µM (inactive) | > 100 µM (inactive) | > 100 µM (inactive)
6 | C#CC[C@@]12CC(=O)C[C@@H]1CCC1(C2)OCCO1.C#CC[C@]12CC(=O)CC[C@H]1CC(=O)C2 | > 100 µM (inactive) | 95.5 µM (inactive) | > 100 µM (inactive) | > 100 µM (inactive) | > 100 µM (inactive) | > 100 µM (inactive) | > 100 µM (inactive) | > 100 µM (inactive) | > 100 µM (inactive) | > 100 | > 100 µM (inactive) | > 100 µM (inactive) | > 100 µM (inactive) | > 100 µM (inactive) | > 100 µM (inactive) | > 100 µM (inactive) | > 100 µM (inactive) | 34.4 µM (inactive) | > 100 µM (inactive) | 
7 | CCCNC(/C=C/[Si](C)(C)C)CO.CCCNCC(O)/C=C/[Si](C)(C)C (stereo not drawn) |  | > 100 µM (inactive) | > 100 µM (inactive) | > 100 µM (inactive) | > 100 µM (inactive) | > 100 µM (inactive) | > 100 µM (inactive) | > 100 µM (inactive) | > 100 µM (inactive) | > 100 |  | > 100 µM (inactive) | > 100 µM (inactive) | > 100 µM (inactive) | > 100 µM (inactive) | > 100 µM (inactive) | > 100 µM (inactive) | 10 µM (inactive) | > 100 µM (inactive) | 
8 | N#C/C(=C\c1cccc(O)c1O)C(N)=O | 62.4 µM (inactive) | 35.2 µM (inactive) | 30.8 µM (inactive) | 36.3 µM (inactive) | 61.4 µM (inactive) | 58.1 µM (inactive) | 50.2 µM (inactive) | 20.3 µM (inactive) | 28.8 µM (inactive) | 57.8 | 68.9 µM (inactive) | 74.3 µM (inactive) | 46.8 µM (inactive) | 34.8 µM (inactive) | 34.5 µM (inactive) | 34.8 µM (inactive) | 21 µM (inactive) | 35.9 µM (inactive) |  | 41.3 µM (inactive)
9 | COC(=O)C1=COC2OC3/C(=C\c4ccc(O)c(OC)c4)C(=O)OC34C=CC1C24 (stereo not drawn) | 17.6 µM (inactive) | 19.6 µM (inactive) | 18.6 µM (inactive) | 13.8 µM (inactive) | 15.2 µM (inactive) | 17.2 µM (inactive) | 20 µM (inactive) | 10.8 µM (inactive) | 17 µM (inactive) | 14.6 | 24.5 µM (inactive) | 27.7 µM (inactive) | 16.5 µM (inactive) |  | 19 µM (inactive) | 17.7 µM (inactive) | 15.2 µM (inactive) | 31.2 µM (inactive) |  | 23.3 µM (inactive)
10 | CSc1nc2c(ncn2C2OCC(O)C(O)C2O)c(=O)n1C (stereo not drawn) | > 100 µM (inactive) | > 100 µM (inactive) | > 100 µM (inactive) | > 100 µM (inactive) | > 100 µM (inactive) | > 100 µM (inactive) | > 100 µM (inactive) | > 100 µM (inactive) | > 100 µM (inactive) | > 100 | > 100 µM (inactive) | > 100 µM (inactive) | > 100 µM (inactive) | > 100 µM (inactive) | > 100 µM (inactive) | > 100 µM (inactive) | > 100 µM (inactive) | > 100 µM (inactive) | > 100 µM (inactive) | 
11 | CC1C[C@]2(C[C@@H](C)C(=O)O2)OC2CC3(C)C4CCC5C(C)(C)OC(=O)CC[C@@]56C[C@@]46CC[C@]3(C)C12 (stereo partly drawn) | > 100 µM (inactive) |  | > 100 µM (inactive) | > 100 µM (inactive) | > 100 µM (inactive) | > 100 µM (inactive) | > 100 µM (inactive) | > 100 µM (inactive) |  | > 100 |  | > 100 µM (inactive) | > 100 µM (inactive) | > 100 µM (inactive) | > 100 µM (inactive) | > 100 µM (inactive) |  | > 100 µM (inactive) | > 100 µM (inactive) | > 100 µM (inactive)
